Reference: US10335417B2, “Thiazideamide derivative and use thereof” (Institute of Pharmacology and Toxicology Academy of …, priority 2015, dated 2019)

Experiments:
MDCK-MDR1 cells = test: in vitro; settings: MDCK-MDR1
From the text: (§1) MDCK-MDR1 cells were monolayer cells which highly express P-gp transporter after transfection of MDCK (Madin-Darby canine kidney epithelial cell) with MDR1 gene. Due to its density and high expression of efflux protein, the monolayer has similarity compared to blood-brain barrier (BBB) structure and now can be used as one of models for evaluating the ability of passing through BBB. In the invention, MDCK-MDR1 cells were used to study the membrane permeability of the compounds according to the invention, and to primarily evaluate its ability of passing through BBB.
(§2) The frozen MDCK-MDR1 cells were quickly thawed in a 37° C. water bath. To the resuscitated cells, DMEM medium containing 10% FBS was added, and the cells were cultured in an incubator at 37° C., 5% CO2, and a relative humidity of 90%. The medium was changed every other day. After fusion of the cells growing for 1-2 days, the cells were digested with 0.25% trypsin-EDTA (0.2%) mixed digestion solution at 37° C., and were sub-cultured at a certain ratio. The cells for use in experiment were those passaged for 40-60 generations.
(§3) When the cell fusion degree reached 80%, the cells were digested and then suspended in complete medium, and seeded to Millicell plate at 1×10^6 cells·mL^−1. The medium was changed every other day, and 1 week later, the medium was changed every day. After culturing for 5 days, the resistance value reached a constant value (>200 Ω·cm^2), and the cells could be used in the transport experiment.
(§4) After washing with 37° C. HBSS twice, the cells were incubated in a 37° C. culture incubator, wherein Rho-123 was added to the upper wells, and HBSS was added to the bottom wells. The incubation was carried out in a constant temperature shaker, and the solutions from the bottom wells were collected at each time point (0 min, 30 min, 90 min, 120 min), and stored at −20° C. for further use. The amount of Rho-123 permeated to the bottom well was determined by fluorospectrophotometer, wherein the emission wavelength was […], and the excitation wavelength was 530 nm.
(§5) The permeability from cavity-surface to basal surface: drug-containing HBSS 0.35 mL was add to Apical (AP), and blank HBSS 1.2 mL was added to Basolateral (BL). The Millicell was placed at 37° C. in a shaker under shaking at 50 r·min^−1, 50 μL sample was collected from the bottom well at 0, 30, 90, 120 min, respectively, and the same volume of blank HBSS was supplemented. 3 wells were set for each concentration, and to the sample, an internal standard solution (50 μL) and ethyl acetate (350 μL) were added precisely. The mixture was mixed homogeneously under shaking, and centrifuged at 12000 rmp for 5 min. The supernatant (300 μL) was volatilized to dryness, and re-dissolved in 50 μL acetonitrile. The 10 μL resultant solution was used for determination.
(§6) The permeability from basal surface to cavity surface: the drug is added to Basolateral (BL), and blank HBSS was added to Apical (AP), and the other steps were the same as those of the experiment for determining the permeability from cavity-surface to basal surface.
(§7) The apparent permeability coefficient (Papp) of a drug reflects the ability of the drug to pass through cell monolayer and the drug absorption rate and extent. It can be calculated in accordance with the following equation: […]
(§8) wherein, Q represents the amount of drug permeated in the t period, A represents cell surface area, and represents the area (0.6 cm^2) of supporting film in this model, and C0 represents an initial concentration. The unit of Papp is expressed as cm·s^−1.
(§9) By measurement using LC/MS, the concentration of each sample was quantitated using its standard curve (50 nM-10000 nM).

[1] = test system: chick embryo dorsal root ganglion; test: in vitro serum-free culture model of chick embryonic dorsal root ganglion: neurite growth score with NGF; format: cell-based; settings: for Average score (growth of neurites of chick embryo dorsal root ganglion): 48 h, score 0-3, average of five ganglions, control 0.33
Protocol: The neurotrophic activity of the compounds according to the invention can be embodied in multiple in vitro biological models, such as in vitro serum-free culture model of chick embryonic dorsal root ganglion.
Experimental method: in a sterile environment, chick embryo, which had been incubated for 8 d, had the spinal and bilateral ganglion exposed under anatomical lens. Dorsal root ganglions were picked one by one using sharp forceps, and seeded in culture bottles spread with rat tail collagen, at a density of 5-6 ganglions per bottle, and two bottles for each dose. After attachment culture in a 37° C., 5% CO2 incubator for 1 h, serum-free medium DMEM containing nerve growth factor (NGF) (0.15 ng/mL), and the compound according to the invention were added. In the control group, only the medium and the same dose of NGF were added. After culture in the incubator for 48 h, the growth of neurite around dorsal root ganglion was observed under inverted phase contrast microscope, which was scored depending on the length and density of neurite.
Evaluation criteria: 0: no neurite; 1: rare long neurite; 2: relatively long or dense neurite; 3: long and dense neurite.

[2] = test system: BCAO-LBP mice (incomplete global cerebral ischemia); test: mouse BCAO-LBP model of incomplete global cerebral ischemia: cerebral MDA content and neurological function score; format: in vivo, Kunmin mice; settings: for Neurologic deficit score / MDA content: 30 mg/kg i.g. once/d for 3 d, x ± SEM; for Neurologic deficit score: behaviour within 6 h after ligation, model group 3.92, sham 0.00; for MDA content: whole cerebrum, model group 40.94, sham 33.15
From the text: In the Example, Kunmin mice were used as experimental subjects, intragastric (i.g.) administration was used, mouse BCAO-LBP (bilateral carotid artery occlusion with low blood pressure) model was used, and by determining neurological function score and the cerebral malondialdehyde (MDA) content in mice, the compounds were investigated for their protective effects on incomplete global cerebral ischemia in mice when administered prophylactically.
2.1.2 Preparation of a drug for intragastric administration: the compound was prepared to a 1.5 mg/ml solution using 0.7% CMC-Na solution.
28 mice, which had adapted to the laboratory environment for 1 week, were evenly grouped depending on body weight. The mice were intragastrically administered with 0.7% CMC-Na or one of the compounds, once/d, for 3 d. The groups were as followed:
Administration group: 12 mice, intragastrically administered at a dose of 0.2 ml/10 g, i.e., the dose of the compound was 30 mg/kg.
2.3.1 Mouse bilateral carotid artery ligation: 1 h after the last administration, the mice were subjected to orbital bloodletting to reduce blood pressure (which was about 30% of the total blood volume of the mice), and then fixed in supine position on the operating table, and cut in the middle of neck. Carotid artery was subjected to blunt dissection, and 2 lines were used in ligation for each side. The time counting started after the ligation with the third line, the carotid artery was cut off between the two lines, and the incision was sewn up. In the Sham-operated group, the carotid artery was only separated without ligation. After the operation, the mice were unfixed quickly, and the mice were observed and recorded for the behaviors within 6 h (scoring depending on the following table using blind method) and the death time. The brains were taken quickly after the mice died, the cerebellums were removed, and the MDA content in the whole cerebrum was determined by thiobarbituric acid (TBA).
The cerebra of mice were taken and weighed, and were prepared into 15% brain homogenate using N.S. 1.2 ml brain homogenate was placed in a 37° C. water bath for 1 h (shaking once every 10 min) and then taken out. 20% trichloroacetic acid 0.6 ml was added, and the mixture was mixed well, and was on standing for 10 min. After centrifugation at 2000 rpm for 10 min, to 1.2 ml supernatant, 0.67% TBA 0.6 ml was added. The mixture was placed in a boiling water bath for 10 min, and was taken out for cooling, and the OD value at a wavelength of 532 nm was determined.
The experimental data was expressed as x±SEM; SPSS 13.0 statistic software was used. Homogeneity or heterogeneity of variance was determined by one-factor analysis of variance. In the case of homogeneity of variance, LSD test was used; in the case of heterogeneity of variance, Dunnett's T3 test was used. Significant difference among different groups was compared, and P<0.05 indicated statistical significance.

in vitro = settings: dog, MDCK-MDR1
From the text: as §1, §2, §3, §4, §5, §6, §7, §8, §9

[3] = compound 100 pM + NGF 0.15 ng/mL

| Compound | Papp (apparent permeability coefficient) (MDCK-MDR1 cells) [×10⁻⁶ cm/s] | Average score (growth of neurites of chick embryo dorsal root ganglion) ([1]; compound 1 pM + NGF 0.15 ng/mL) | Average score (growth of neurites of chick embryo dorsal root ganglion) [1, 3] | Neurologic deficit score [2] | MDA content [2] [nmol/g] | Papp at 120 min (in vitro) [×10⁻⁶ cm/s] | neurologic deficit score decreased compared to the group administered with Compound 5 ([2]; 30 mg/kg i.g., BCAO-LBP mice) | neurologic deficit score decreased compared to the group administered with Compound 6 ([2]; 30 mg/kg i.g., BCAO-LBP mice) [%] | neurotrophic activity increased compared to Compound 6 ([1]; dose 1 pM) [%] | neurotrophic activity increased compared to Compound 6 ([1]; dose 100 pM) [%] |
| --- | --- | --- | --- | --- | --- | --- | --- | --- | --- | --- |
| CCOC(=O)[C@H](CC(C)C)NC(=O)[C@@H]1CSCCN1S(=O)(=O)c1ccc(C)cc1 [Compound 5, (3R)-4-[(4-methylbenzenesulfonyl)]-1,4-thiazin-3-carbonyl-L-leucine ethyl ester, reference compound] | 8.38 | 0.65 | 1.55 | 3.62 ± 0.31 | 36.09 ± 1.85 |  |  |  |  |  |
| CCC(C)[C@H](NC(=O)[C@@H]1CSCCN1S(=O)(=O)c1ccc(C)cc1)C(=O)OC(C)(C)C (stereo partly drawn) [Compound 9, (2S,3R)-tert-butyl-3-methyl-2((R)-(4-methylphenyl)sulfonyltetrahydro-1,4-thiazin-3-aminoformyl)valerate] |  | 1.76 | 2.56 | 2.37 ± 0.31 | 33.29 ± 1.81 | 12.4 | about 35% |  |  |  |
| Cc1ccc(S(=O)(=O)N2CCSC[C@H]2C(=O)N[C@H](C(=O)OCc2ccccc2)C(C)C)cc1 [Compound 11, (S)-benzyl-3-methyl-2((R)-(4-methylphenyl)sulfonyltetrahydro-1,4-thiazin-3-aminoformyl)butyrate] |  | 1.86 | 2.65 | 3.66 ± 0.31 | 32.57 ± 0.75 | 15.6 |  |  |  |  |
| CCOC(=O)[C@@H](NC(=O)[C@@H]1CSCCN1S(=O)(=O)c1ccc(C)cc1)C(C)C [Compound 13, (S)-ethyl-3-methyl-2((R)-(4-methylphenyl)sulfonyltetrahydro-1,4-thiazin-3-aminoformyl)butyrate] |  | 1.96 | 2.88 | 2.47 ± 0.40 | 33.90 ± 1.45 | 18.9 | ~32% |  |  |  |
| Cc1ccc(S(=O)(=O)N2CCSC[C@H]2C(=O)N[C@@H](C(=O)OC(C)(C)C)C(C)C)cc1 [Compound 15, (R)-tert-butyl-3-methyl-2((R)-(4-methylphenyl)sulfonyltetrahydro-1,4-thiazin-3-aminoformyl)butyrate] |  | 1.78 | 2.68 | 1.91 ± 0.28 | 33.77 ± 1.61 | 40.8 |  | ~8 |  |  |
| Cc1ccc(S(=O)(=O)N2CCSC[C@H]2C(=O)N[C@@H](Cc2ccccc2)C(=O)OCc2ccccc2)cc1 [Compound 18, (S)-benzyl-3-phenyl-2((R)-(4-methylphenyl)sulfonyltetrahydro-1,4-thiazin-3-aminoformyl)propionate] |  | 1.66 | 2.68 | 2.65 ± 0.31 | 32.66 ± 0.93 | 28.5 | ~27% |  |  |  |
| Cc1ccc(S(=O)(=O)N2CCSC[C@H]2C(=O)N[C@H](Cc2ccccc2)C(=O)OC(C)(C)C)cc1 [Compound 20, (R)-tert-butyl-3-phenyl-2((R)-(4-methylphenyl)sulfonyltetrahydro-1,4-thiazin-3-aminoformyl)propionate] |  | 2.10 | 3.32 | 3.76 ± 0.31 | 34.90 ± 1.65 | 18.8 |  |  | 25 | 30 |
| CCOC(=O)[C@H](CCc1ccccc1)NC(=O)[C@@H]1CSCCN1S(=O)(=O)c1ccc(C)cc1 [Compound 22, (S)-ethyl-4-phenyl-2((R)-(4-methylphenyl)sulfonyltetrahydro-1,4-thiazin-3-aminoformyl)butyrate] |  | 1.88 | 2.78 | 3.08 ± 0.40 | 33.27 ± 1.61 | 40.6 | about 15% |  |  |  |
